Patent publication US8394969B2, “Cyclic benzimidazole derivatives useful as anti-diabetic agents” (Merck Sharp & Dohme Corp., priority 2008, dated 2013)
pEC50: −log10 of the molar value. Counter-ions that a name gives are not always drawn.

The compounds below were run against recombinant human AMPK complex 1 (containing α1β1γ1) (Homo sapiens, UniProt Q13131+Q9Y478) (assay: […] (in vitro AMPK activation assay)). Conditions: recombinant human AMPK complex 1 (α1β1γ1); basal activity subtracted; read-out: % Maximum AMP Activation of human AMPK Complex 1.
recombinant human AMPK complex 1 (containing α1β1γ1), sequence (Q13131 whole entry): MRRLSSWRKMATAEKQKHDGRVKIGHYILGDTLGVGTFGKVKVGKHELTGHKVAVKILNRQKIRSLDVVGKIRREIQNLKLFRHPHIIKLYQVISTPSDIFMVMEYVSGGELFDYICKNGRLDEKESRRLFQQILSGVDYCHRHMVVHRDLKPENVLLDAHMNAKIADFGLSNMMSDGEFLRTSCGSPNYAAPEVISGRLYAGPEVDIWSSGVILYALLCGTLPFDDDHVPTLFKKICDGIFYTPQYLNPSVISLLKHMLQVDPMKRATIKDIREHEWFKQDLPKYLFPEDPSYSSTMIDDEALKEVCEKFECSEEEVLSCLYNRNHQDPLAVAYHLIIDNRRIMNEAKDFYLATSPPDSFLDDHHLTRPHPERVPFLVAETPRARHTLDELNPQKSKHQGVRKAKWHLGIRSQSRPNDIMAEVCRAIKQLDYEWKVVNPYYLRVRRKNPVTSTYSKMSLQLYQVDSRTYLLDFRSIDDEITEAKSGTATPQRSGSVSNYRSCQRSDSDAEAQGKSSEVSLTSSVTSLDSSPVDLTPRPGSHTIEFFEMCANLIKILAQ
recombinant human AMPK complex 1 (containing α1β1γ1), sequence (Q9Y478 whole entry): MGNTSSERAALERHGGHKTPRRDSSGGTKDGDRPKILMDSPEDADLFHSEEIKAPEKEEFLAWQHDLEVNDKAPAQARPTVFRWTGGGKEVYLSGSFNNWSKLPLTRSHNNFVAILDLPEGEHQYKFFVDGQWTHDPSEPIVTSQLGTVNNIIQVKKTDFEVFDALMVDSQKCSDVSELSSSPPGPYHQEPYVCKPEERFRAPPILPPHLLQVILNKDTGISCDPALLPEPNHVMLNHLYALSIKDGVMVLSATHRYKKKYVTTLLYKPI
recombinant human AMPK complex 1 (containing α1β1γ1), sequence (P54619 whole entry partner): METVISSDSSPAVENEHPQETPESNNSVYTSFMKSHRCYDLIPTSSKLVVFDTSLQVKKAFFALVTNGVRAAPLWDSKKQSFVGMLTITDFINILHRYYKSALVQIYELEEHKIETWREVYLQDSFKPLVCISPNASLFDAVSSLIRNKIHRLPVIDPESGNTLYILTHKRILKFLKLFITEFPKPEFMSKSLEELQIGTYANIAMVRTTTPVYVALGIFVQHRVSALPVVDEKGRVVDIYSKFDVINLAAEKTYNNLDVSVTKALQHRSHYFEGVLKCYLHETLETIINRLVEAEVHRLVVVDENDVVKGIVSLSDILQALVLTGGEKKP
Format: biochemical
Work on Cc1ccc(Oc2nc3cc(-c4cnc5c(c4)OCCN5C)c(Cl)cc3[nH]2)cc1C(=O)O [Example 143, 2-(3-carboxy-4-methylphenoxy)-6-chloro-5-(4-methyl-3,4-dihydro-2H-pyrido[3,2-b] [1,4]oxazin-7-yl)-1H-3,1-benzimidazol-3-ium trifluoroacetate] yielded an Emax of over 80%. Cc1ccc(Oc2nc3cc(-c4cnc5c(ccn5C)c4)c(Cl)cc3[nH]2)cc1C(=O)O [Example 144, 2-(3-carboxy-4-methylphenoxy)-6-chloro-5-(1-methyl-1H-pyrrolo[2,3-b]pyridin-5-yl)-1H-3,1-benzimidazol-3-ium chloride] showed an Emax of over 80%. With COc1ccc2cc(-c3cc4nc(Oc5ccc(C)c(C(=O)O)c5)[nH]c4cc3Cl)ccc2c1 [Example 145, 5-[6-Chloro-5-(6-methoxy-naphthalen-2-yl)-1H-benzoimidazol-2-yloxy]-2-methyl-benzoic acid] the Emax was over 80%. COc1ccc2cc(-c3cc4nc(Oc5ccc(C)c(C(=O)O)c5)[nH]c4cc3Cl)ccc2n1 [Example 146, 5-[6-Chloro-5-(2-methoxy-quinolin-6-yl)-1H-benzoimidazol-2-yloxy]-2-methyl-benzoic acid] was tested, and the Emax was over 80%. Compound Cc1ccc(Oc2nc3cc(-c4ccc5c(c4)[nH]c4ccccc45)c(Cl)cc3[nH]2)cc1C(=O)O [Example 147, 5-[5-(9H-Carbazol-2 yl)-6-chloro-1H-benzoimidazol-2-yloxy]-2-methyl-benzoic acid] has an Emax of over 80%. Work on Cc1ccc(Oc2nc3cc(-c4cnc5ccccc5c4)c(Cl)cc3[nH]2)cc1C(=O)O [Example 148, 2-(3-carboxy-4-methylphenoxy)-6-chloro-5-quinolin-3-yl-1H-3,1-benzimidazol-3-ium chloride] yielded an Emax of over 80%. Cc1ccc(Oc2nc3cc(-c4ccc5nnn(C)c5c4)c(Cl)cc3[nH]2)cc1C(=O)O [Example 149, 5-[6-Chloro-5-(3-methyl-3H-benzotriazol-5-yl)-1H-benzoimidazol-2-yloxy]-2-methyl-benzoic acid] showed an Emax of over 80%. Cc1ccc(Oc2nc3cc(-c4ccc5ncccc5c4)c(Cl)cc3[nH]2)cc1C(=O)O [Example 150, 2-(3-carboxy-4-methylphenoxy)-6-chloro-5-quinolin-6-yl-1H-3,1-benzimidazol-3-ium chloride] was tested, and the Emax was over 80%. With Cc1ccc(Oc2nc3cc(-c4ccc5nncn5c4)c(Cl)cc3[nH]2)cc1C(=O)O [Example 152, 5-(6-Chloro-5-[1,2,4]triazolo[4,3-a]pyridin-6-yl-1H-benzoimidazol-2-yloxy)-2-methyl-benzoic acid] the Emax was over 80%. Work on Cc1ccc(Oc2nc3cc(-c4ccc5[nH]ncc5c4)c(Cl)cc3[nH]2)cc1C(=O)O [Example 153, 5-[6-Chloro-5-(1H-indazol-5-yl)-1H-benzoimidazol-2-yloxy]-2-methyl-benzoic acid] yielded an Emax of over 80%. With Cc1ccc(Oc2nc3cc(C#CC(C)(C)O)c(Cl)cc3[nH]2)cc1C(=O)O [Example 154, 5-[6-Chloro-5-(3-hydroxy-3-methyl-but-1-ynyl)-1H-benzoimidazol-2-yloxy]-2-methyl-benzoic acid] the Emax was over 80%. For Cc1ccc(Oc2nc3cc(-c4ccc(C(C)O)cc4)c(Cl)cc3[nH]2)cc1C(=O)O (stereo not drawn) [Example 156, 5-{6-Chloro-5-[4-(1-hydroxy-ethyl)-phenyl]-1H-benzoimidazol-2-yloxy}-2-methyl-benzoic acid], the Emax was over 80%. With CC(=O)c1ccc(-c2cc3nc(Oc4ccc(C)c(C(=O)O)c4)[nH]c3cc2Cl)cc1 [Example 157, 5-{5-(4-Acetyl-phenyl)-6-chloro-1H-benzoimidazol-2-yloxy]-2-methyl-benzoic acid] the Emax was over 80%. For Cc1ccc(Oc2nc3cc(C4=CCN(c5ncccn5)CC4)c(Cl)cc3[nH]2)cc1C(=O)O [Example 158, 2-(3-carboxy-4-methylphenoxy)-6-chloro-5-(1-pyrimidin-2-yl-1,2,3,6-tetrahydropyridin-4-yl)-1H-3,1-benzimidazol-3-ium trifluoroacetate], the Emax was over 80%. Cc1ccc(Oc2nc3cc(-c4cnn(CC(C)C)c4)c(Cl)cc3[nH]2)cc1C(=O)O [Example 159, 5-[6-Chloro-5-(1-isobutyl-1H-pyrazol-4-yl)-1H-benzoimidazol-2-yloxy]-2-methyl-benzoic acid] was tested, and the Emax was over 80%. Compound Cc1ccc(Oc2nc3cc(-c4cn[nH]c4)c(Cl)cc3[nH]2)cc1C(=O)O [Example 160, 5-[6-Chloro-5-(1H-pyrazol-4-yl)-1H-benzoimidazol-2-yloxy]-2-methyl-benzoic acid] has an Emax of over 80%. Work on Cc1ccc(Oc2nc3cc(-c4ccc(-c5ccc[n+]([O-])c5)cc4)c(Cl)cc3[nH]2)cc1C(=O)O [Example 161, 5-{6-Chloro-5-[4-(1-oxy-pyridin-3-yl)-phenyl]-1H-benzoimidazol-2-yloxy}-2-methyl-benzoic acid] yielded an Emax of over 80%. Work on Cc1ccc(Oc2nc3cc(-c4ccc(-c5ccc(=O)n(C(F)F)c5)cc4)c(Cl)cc3[nH]2)cc1C(=O)O [Example 162, 5-{6-Chloro-5-[4-(1-difluoromethyl-6-oxo-1,6-dihydro-pyridin-3-yl)-phenyl]1H-benzoimidazol-2-yloxy}-2-methyl-benzoic acid] yielded an Emax of over 80%. Work on COC(=O)c1cc(Oc2nc3cc(-c4ccc(-c5ccc(=O)n(C(F)F)c5)cc4)c(Cl)cc3[nH]2)ccc1C [Example 163, 5-{6-Chloro-5-[4-(1-difluoromethyl-6-oxo-1,6-dihydro-pyridin-3-yl)-phenyl]-1H-benzoimidazol-2-yloxy}-2-methyl-benzoic acid methyl ester] yielded an Emax of over 80%. Compound COC(=O)c1cc(Oc2nc3cc(-c4ccc(-c5ccccn5)cc4)c(Cl)cc3[nH]2)ccc1C [Example 165, 5-[6-Chloro-5-(4-pyridin-2-yl-phenyl)-1H-benzoimidazol-2-yloxy]-2-methyl-benzoic acid methyl ester] has an Emax of over 80%. Cc1ccc(Oc2nc3cc(-c4ccc(-c5ccccn5)cc4)c(Cl)cc3[nH]2)cc1C(=O)O [Example 166, 5-[6-Chloro-5-(4-pyridin-2-yl-phenyl)-1H-benzoimidazol-2-yloxy]-2-methyl-benzoic acid] showed an Emax of over 80%. With COC(=O)c1cc(Oc2nc3cc(-c4ccc(-c5ccncc5)cc4)c(Cl)cc3[nH]2)ccc1C [Example 167, 5-[6-Chloro-5-(4-pyridin-4-yl-phenyl)-1H-benzoimidazol-2-yloxy]-2-methyl-benzoic acid methyl ester] the Emax was over 80%. In the case of Cc1ccc(Oc2nc3cc(-c4ccc(-c5cccnc5)cc4)c(Cl)cc3[nH]2)cc1C(=O)O [Example 169, 5-[6-Chloro-5-(4-pyridin-3-yl-phenyl)-1H-benzoimidazol-2-yloxy]-2-methyl-benzoic acid], the Emax was over 80%. With COC(=O)c1cc(Oc2nc3cc(-c4ccc(-c5ccc(=O)n(C)c5)cc4)c(Cl)cc3[nH]2)ccc1C [Example 170, 5-{6-Chloro-5-[4-(1-methyl-6-oxo-1,6-dihydro-pyridin-3-yl)-pheny1]-1H-benzoimidazol-2-yloxy}-2-methyl-benzoic acid methyl ester] the Emax was over 80%. In the case of COC(=O)c1cc(Oc2nc3cc(-c4ccc(-c5cccnc5)cc4)c(Cl)cc3[nH]2)ccc1C [Example 171, 5-[6-Chloro-5-(4-pyridin-3-yl-phenyl)-1H-benzoimidazol-2-yloxy]-2-methyl-benzoic acid methyl ester], the Emax was over 80%. With COc1ccc(-c2ccc(-c3cc4nc(Oc5ccc(C)c(C(=O)O)c5)[nH]c4cc3Cl)cc2)cc1 [Example 172, 5-[6-Chloro-5-(4′-methoxy-biphenyl-4-yl)-1H-benzoimidazol-2-yloxy]-2-methyl-benzoic acid] the Emax was over 80%. Compound Cc1ccc(Oc2nc3cc(-c4ccc(N5CCOCC5)nc4)c(Cl)cc3[nH]2)cc1C(=O)O [Example 173, 5-[6-Chloro-5-(6-morpholin-4-yl-pyridin-3-yl)-1H-benzoimidazol-2-yloxy]-2-methyl-benzoic acid] has an Emax of over 80%. For Cc1ccc(Oc2nc3cc(-c4ccc(N5CCNCC5)nc4)c(Cl)cc3[nH]2)cc1C(=O)O [Example 174, 5-[6-Chloro-5-(6-piperazin-1-yl-pyridin-3-yl)-1H-benzoimidazol-2-yloxy]-2-methyl-benzoic acid], the Emax was over 80%. Cc1ccc(Oc2nc3cc(-c4ccc(N5CCN(C(=O)OC(C)(C)C)CC5)nc4)c(Cl)cc3[nH]2)cc1C(=O)O [Example 175, 4-{5-[2-(3-Carboxy-4-methyl-phenoxy)-6-chloro-1H-benzoimidazol-5-yl]-pyridin-2-yl}-piperazine-1-carboxylic acid tert-butyl ester] gave an Emax of over 80%. Cc1ccc(Oc2nc3cc(-c4ccc(-c5nnn[nH]5)cc4)c(Cl)cc3[nH]2)cc1C(=O)O [Example 176, 5-{6-Chloro-5-[4-(1H-tetrazol-5-yl)-phenyl]-1H-benzoimidazol-2-yloxy}-2-methyl-benzoic acid] showed an Emax of over 80%. In the case of Cc1ccc(Oc2nc3cc(-c4ccc(/C(N)=N/O)cc4)c(Cl)cc3[nH]2)cc1C(=O)O [Example 177, 5-{6-Chloro-5-[4-(N-hydroxycarbamimidoyl)-phenyl]-1H-benzoimidazol-2-yloxy}-2-methyl-benzoic acid], the Emax was over 80%. Work on Cc1ccc(Oc2nc3cc(-c4ccc(N5CCNCC5)cc4)c(Cl)cc3[nH]2)cc1C(=O)O [Example 178, 5-[6-Chloro-5-(4-piperazin-1-yl-phenyl)-1H-benzoimidazol-2-yloxy]-2-methyl-benzoic acid] yielded an Emax of over 80%. Cc1ccc(Oc2nc3cc(-c4ccc(N5CCOCC5)cc4)c(Cl)cc3[nH]2)cc1C(=O)O [Example 179, 5-[6-Chloro-5-(4-morpholin-4-yl-phenyl)-1H-benzoimidazol-2-yloxy]-2-methyl-benzoic acid] showed an Emax of over 80%. Cc1ccc(Oc2nc3cc(-c4ccc(C#N)cc4)c(Cl)cc3[nH]2)cc1C(=O)O [Example 180, 5-[6-Chloro-5-(4-cyano-phenyl)-1H-benzoimidazol-2-yloxy]-2-methyl-benzoic acid] was tested, and the Emax was over 80%.

Same assay, conditions: recombinant human AMPK complex 1 (α1β1γ1); read-out: EC50
With Cc1ccc(Oc2nc3cc(-c4ccc5c(c4)OCCN5C)c(Cl)cc3[nH]2)cc1C(=O)O [Example 151, 2-(3-carboxy-4-methylphenoxy)-6-chloro-5-(4-methyl-3,4-dihydro-2H-1,4-benzoxazin-7-yl)-1H-3,1-benzimidazol-3-ium chloride] the pEC50 was 7.66. Cc1ccc(Oc2nc3cc(-c4ccc(-c5ccncc5)cc4)c(Cl)cc3[nH]2)cc1C(=O)O [Example 168] was tested, and the pEC50 was 8.30.
